Measurements taken from PMC6338644 (The FASEB Journal, 2018).
Values joined by “and” are separate entries in the source; they are usually repeats but may differ in a detail not shown here. Equal values may be shown once. Where a name gives a salt, the structure may show the parent alone.

Tests used:
[1] = biological target: T1, His-tagged human SHIP2 phosphatase domain (Homo sapiens, UniProt O15357); assay: Malachite green phosphate assay, recombinant SHIP2 phosphatase domain (High Throughput Biomedicine Unit, 384-well); assay type: biochemical
T1 construct: we produced a His-tagged human SHIP2 phosphatase domain; His; made in house
T1 sequence (O15357 419-732 limits assumed): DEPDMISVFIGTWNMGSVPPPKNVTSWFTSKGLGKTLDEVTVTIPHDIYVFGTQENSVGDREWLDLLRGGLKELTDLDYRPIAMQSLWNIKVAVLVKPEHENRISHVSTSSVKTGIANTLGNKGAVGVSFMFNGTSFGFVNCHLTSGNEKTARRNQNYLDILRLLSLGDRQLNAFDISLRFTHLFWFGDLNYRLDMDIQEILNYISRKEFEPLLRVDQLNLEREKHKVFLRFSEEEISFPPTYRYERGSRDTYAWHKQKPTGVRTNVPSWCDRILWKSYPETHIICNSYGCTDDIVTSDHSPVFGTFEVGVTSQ
Experimental: Recombinant His-tagged human SHIP2 and SHIP1 phosphatase domains were produced as previously described ([17]). […] Immunocomplexes were bound to protein G-Sepharose beads at +4°C for 2 h and washed 3 times with malachite green phosphate assay buffer {10 mM 4-(2-hydroxyethyl)-1-piperazineethanesulfonic acid (HEPES), pH 7.25, 6 mM MgCl2, 0.1% 3-[(3-cholamidopropyl)dimethylammonio]-1-propanesulfonate (CHAPS), 250 mM sucrose, and 0.25 mM EDTA}.
The catalytic activities of the recombinant SHIP2 and SHIP1 phosphatase domains were determined by malachite green phosphate assay at the High Throughput Biomedicine Unit (University of Helsinki) using D-myo-PI(3,4,5)P3 (Echelon Biosciences, Salt Lake City, UT, USA). Different volumes, resulting in desired final concentrations of inhibitors, were transferred to the wells of 384-well plates by using the Echo550 acoustic dispenser (Labcyte, San Jose, CA, USA). Recombinant protein (100 ng) in reaction buffer {10 mM HEPES, pH 7.25, 6 mM MgCl2, 0.1% CHAPS, 250 mM sucrose, and 0.25 mM EDTA} was placed in each well (7.5 µl), and the plates were preincubated at room temperature for 15 min. The phosphatase reaction was started by adding PI(3,4,5)P3 diluted in the reaction buffer (7.5 µl) to each well to reach a final concentration of 100 µM PI(3,4,5)P3 in the 15 µl reaction volume. The plates were incubated at room temperature for 20 min, after which, 15 µl BIOMOL green reagent (Biomol, Plymouth Meeting, PA, USA) was added to each well, and then the plates were incubated for another 25 min at room temperature. Absorbance was measured at 620 nm using a Pherastar FS plate reader (BMG Labtech, Offenburg, Germany). For the manual malachite green phosphate assay in 96-well plates [see Fig. 1; and activity measurement of phosphatase and tensin homolog (PTEN; Signalchem, Richmond, BC, Canada)], the reaction volume was increased to 50 µl, and 100 µl Biomol Green Reagent was added. The catalytic activity of SHIP2 immunoprecipitated from cell and tissue lysates was determined as in Saurus et al. ([22]), omitting SHIP2 inhibitors in lysis buffer, immunoprecipitation reaction, wash, and assay buffers. AS1949490 was synthesized, as described in Supplemental Fig. S1A, or purchased from Tocris Bioscience (Bristol, United Kingdom).

[2] = tested on: podocytes in kidneys of patients with T2D; assay: Podocyte number per glomerulus (WT1-positive cells) in patient kidneys; assay type: in vivo, human; conditions: compared with people without T2D; WT1-positive cells per glomeruli
Description: The use of human material was approved by the local Ethics Committee, and written, informed consent was received from study participants. Paraffin sections were stained with anti-SHIP2 (I-20) as in Hyvonen et al. ([10]) or anti- Wilms tumor protein 1 (WT1; Santa Cruz Biotechnology) using the Brightvision Poly-HRP-anti-Rabbit IgG kit (ImmunoLogic, Amsterdam, The Netherlands) and 3,3′-diaminobenzidine (Dako Cytomation, Carpinteria, CA, USA). Slides were counterstained with hematoxylin and digitally scanned with 3DHistech Pannoramic 250 FLASH II (3DHistech, Budapest, Hungary) at the Genome Biology Unit (University of Helsinki). Quantification of SHIP2 staining intensity was performed with the HistoQuant module (3DHistech). Podocyte number was estimated by counting the number of WT1-positive cells per glomerular cross-section in 10 glomeruli per patient in a blinded manner, as described in Guo et al. ([24]). Only glomeruli larger than 170 µm in diameter were examined to ensure sectioning through the center of each glomerulus.
Kidney samples were lysed, and the enzymatic activity of immunoprecipitated SHIP2 was analyzed by malachite green phosphate assay (n = 4–7). […] Ten randomly chosen glomeruli were analyzed from each patient (n = 6–7). […] Podocyte number per glomeruli was quantified by counting WT1-positive cells. Ten randomly chosen glomeruli were analyzed from each patient (n = 9–30).

db/db mice = assay: Metabolic assays in db/db mice; assay type: in vivo, mouse; conditions: 250 mg/kg per day, 12 d
Experimental: At the end of the experiment, mice were euthanized.
Insulin tolerance test was performed and blood glucose measured at the indicated times after insulin injection, and the area under the curve (AUC) was calculated (n = 5–6).

SHIP2 expression level = assay: Immunoblot of SHIP2 expression in cultured cells; assay type: cell-based, rat, human; conditions: 2 mM, 20–24 h; myotubes, podocytes, hepatoma cells
Description: Rat L6 myoblasts (American Type Culture Collection, Manassas, VA, USA) and hepatoma cells (Fao Cells, Culture Collection; Public Health England, Salisbury, United Kingdom) were maintained according to the provider’s instructions. L6 myoblasts stably expressing hemagglutinin-GLUT4-green fluorescent protein (HA-GLUT4-GFP, referred to as L6-GLUT4) were generated, as previously described ([19]). Immortalized human podocytes were maintained as previously described ([10]). Lentiviral infection was used to overexpress or knock down transiently SHIP2 in cultured cells on d 10–12 of differentiation for 48 h (basal level) or 72 h (insulin stimulation), as previously described ([10], [20]). Human pLKO1-short hairpin RNA (shRNA) SHIP2 ([sequence]) was obtained from Functional Genomics Unit, University of Helsinki. […] Podocytes were lysed as previously described ([21]). Myotubes, hepatoma cells, and tissues were lysed and immunoblotting performed as in Tolvanen et al. ([19]) with anti-SHIP2 and anti-AMPK (Santa Cruz Biotechnology, Dallas, TX, USA); anti-phospho (p)Akt (S473), anti-pAMPK (Thr172), anti-AMPK, and anti-cleaved caspase-3 (Cell Signaling Technology, Danvers, MA, USA); anti-Pan Akt (R&D Systems, Minneapolis, MN, USA); anti-tubulin, anti-Glut4, and anti-Glut1 (MilliporeSigma, Burlington, MA, USA); and anti-actin (Abcam, Cambridge, United Kingdom).

[3] = tested on: SHIP2-overexpressing podocytes; assay: Apoptosis of SHIP2-overexpressing podocytes (cleaved caspase-3 immunoblot, Annexin V flow cytometry); assay type: cell-based, human; conditions: 2 mM, 48 h
Experimental: Immortalized human podocytes were maintained as previously described ([10]). Lentiviral infection was used to overexpress or knock down transiently SHIP2 in cultured cells on d 10–12 of differentiation for 48 h (basal level) or 72 h (insulin stimulation), as previously described ([10], [20]). […] Apoptosis was measured by flow cytometry using the Annexin V-FITC Apoptosis Kit (Becton Dickinson, Franklin Lakes, NJ, USA) and double staining with 7-aminoactinomycin D (Becton Dickinson), as previously described ([10]). Podocytes were lysed as previously described ([21]). Myotubes, hepatoma cells, and tissues were lysed and immunoblotting performed as in Tolvanen et al. ([19]) with anti-SHIP2 and anti-AMPK (Santa Cruz Biotechnology, Dallas, TX, USA); anti-phospho (p)Akt (S473), anti-pAMPK (Thr172), anti-AMPK, and anti-cleaved caspase-3 (Cell Signaling Technology, Danvers, MA, USA); anti-Pan Akt (R&D Systems, Minneapolis, MN, USA); anti-tubulin, anti-Glut4, and anti-Glut1 (MilliporeSigma, Burlington, MA, USA); and anti-actin (Abcam, Cambridge, United Kingdom).
Cell lysates were subjected to immunoblot analysis with anti-SHIP2, anti-cleaved caspase-3, and anti-actin IgGs. […] B, C) Quantification of SHIP2 and cleaved caspase-3 levels in A, normalized to actin. […] Apoptosis was measured by flow cytometry using Annexin V-FITC and 7-aminoactinomycin D (7AAD) double staining. […]

Row | SMILES | SHIP2 Inhibition efficiency ([1]; inhibitors at 100 µM concentration, 100 µM) | podocyte loss in metformin-receiving patients [2] [%] | effect on body weight (db/db mice) | effect on fasting blood glucose concentrations (db/db mice; 6 h fasting) | effect on urinary albumin excretion (db/db mice; 24 h urine) | insulin tolerance test: fasting blood glucose at 30–120 min after insulin administration (db/db mice; insulin 0.75 U/kg) | insulin tolerance test: glucose area under the curve (db/db mice; insulin 0.75 U/kg) | effect on SHIP2 expression level in cultured cells (SHIP2 expression level) | inhibition at 100 µM ([1]; inhibitors at 100 µM concentration, read-out: SHIP2 Inhibition efficiency) [%] | IC50 ([1]; purified His-tagged phosphatase domain, 100 µM PI(3,4,5)P3) [µM] | cleaved caspase-3 level in SHIP2-overexpressing podocytes [3] | level of apoptosis (Annexin V, flow cytometry) in SHIP2-overexpressing podocytes [3]
1 | C[C@H](NC(=O)c1sccc1OCc1ccc(Cl)cc1)c1ccccc1 [AS1949490] | 26% and 25.9% | – | – | – | – | – | – | – | – | – | – | –
2 | CN(C)C(=N)N=C(N)N [Metformin, 1,1-Dimethylbiguanide hydrochloride] | – | 11 | no effect | no effect | no effect | reduces | reduces | no effect | 39.4 | 6 | back to the level in the control | back to the level of the control
